# Measurements taken from patent publication US20060148908A1, “Supressant of toxicity induced by cancer chemotherapeutic agent and composition of cancer chemotherapeutic agent containing the same” (priority 2003, published 2006).
# “Also recorded” adds a separate entry of the source.
# Columns and labels:
# ICR mice [1] = test: Serum biochemical parameters (GPT, GOT, BUN, creatinine) in cisplatin-treated mice; type: in vivo
# Procedure: (§1) The kidney and spleen were separated and weighed, respectively.
# Blood samples obtained from heart were kept at room temperature for 2 h, centrifuged at 3000 rpm for 10 minutes to obtain sera, and stored at low temperature for analyzing proteins. GPT (Glutamate-Pyruvate Transaminase), GOT (Glutamate-Oxaloacetate Transaminase), blood urea nitrogen (BUN), and creatinine from the serum were measured.
# The principle is following: α-ketoglutaric acid+alanine→glutamate+pyruvate. Pyruvate formed by GPT enzyme in said reaction is reacted with 2,4-dinitrophenylhydrazine and the intensity of color formed by the resulting reaction is related to enzymatic activity. The absorbance was determined at 505 nm. The reagents for determining GPT and GOT were purchased from Sigma chemical Co. (St. Louis, U.S.A.). Because hemolyzed serum contains a high level of GOT and GPT compared to normal serum, only unhemolyzed serum should be used as much as possible. The separated serum samples were stored at 4° C. and used within 5 days because the activity of GPT and GOT might decrease after 5 days at low temperature.
# 1 ml alanine-α-KG substrate was added to test tube and was pre-warmed at 37° C. for 2-3 minutes. 0.2 ml serum samples was added to each tube and incubated at 37° C. for 30 minutes in water bath. After that, 1 ml 2,4-dinitrophenylhydrazine was added and incubated at room temperature for 20 minutes. 10 ml 0.4N NaOH solution was added to each tube and was mixed well. After that, the GPT absorbance of each tube was read comparing with distilled water. In case of GOT determination, 1 ml aspartate-α-KG substrate was pre-warmed at 37° C. for 2-3 minutes, and 0.2 ml serum samples were added to each tube and incubated at 37° C. for 60 minutes, and the absorbance was read.
# Through a kit for assaying blood urea nitrogen, Ammonia (NH3) formed by hydrolysis of urea was measured by the absorbance at 570 nm.
# 0.5 ml urease solution was added to test tube and mixed with 10 μl serum sample, and incubated in water bath at 37° C. for 5-10 minutes. 1 ml phenol nitroprusside solution and 1 ml alkaline hypochlorite solution were added to the tube and mixed gentlely, and 5 ml distilled water was added. After that, the absorbance of the reaction was measured comparing with distilled water as a control. The reagents for determining urea nitrogen were purchased from Sigma chemical Co. (St. Louis, U.S.A.) and standard calibration curve was used.
# Standard calibration curve was used.
# 3 ml alkaline picrate solution and 0.3 ml serum sample were mixed well at 37° C. for 20 minutes and the absorbance (A1) was measured. Distilled water was used for a negative control. 0.1 ml acid solution (mixture of sulfuric acid and acetic acid) was added to each tube and incubated in water bath at 37° C. for 5 minutes. After that, the absorbance (A2) was read with distilled water as a negative control. Absorbance of the sample for determining the content of creatinine is absorbance (A1) minus absorbance (A2) according to standard calibration curve. The reagents for determining creatinine were purchased from Sigma chemical Co. (St. Louis, U.S.A.)
# Kin = conditions: mouse, in vivo
# Procedure: After that, powdered liver tissues were homogenized using TRIzol™ reagent (Life technologies, Austria). The homogenized samples were incubated for 5 min at room temperature to permit the complete dissociation of nucleoprotein complexes. After the addition of 0.2 volume of chloroform, samples were shaken vigorously for 15 seconds, incubated for 2-3 min, and centrifuged at 12000×g for 15 min at 4° C. Total RNA in the upper aqueous phase was precipitated by mixing with an equal volume of isopropanol. The mixtures were incubated for 10 min at 4° C. and centrifuged at 12000×g for 10 min at 4° C. Total RNA pellet was washed with 75% ethanol, dried, and dissolved in RNase free water. To prevent the contamination with chromosomal DNA, total RNA samples were incubated with 10 units of DNase I (GenHunter Corp., Nashville, USA) at 37° C. for 30 min, and then DNA-free RNA was isolated using TRIzol reagent. The concentration and purity of total RNA and DNase-I-treated total RNA were calculated with absorbance at 260 and 280 nm.
# DDRT-PCR (differential display reverse transciption-polymerase chain reaction) was performed using the RNAimage kit (GenHunter Corp., Nashville, USA). […]
# S100A9 = test: DDRT-PCR and semiquantitative RT-PCR of liver, S100A9 mRNA expression; type: in vivo, mice
# ICR mice [2] = test: Kidney and spleen weight relative to body weight in cisplatin-treated mice; type: in vivo; conditions: for specific gravity of kidney: oral pretreatment for 4 days before cisplatin injection, versus cisplatin only
# Procedure: Cisplatin was intraperitoneally injected in mice. After some time passed, body weights of the mice were checked and induction of toxicity was confirmed. Blood was gotten from the heart of etherized mouse, and biochemical markers related to the induction of hepatotoxicity and nephrotoxicity were evaluated, and the kidney and spleen were separated and weighed for comparison.
# Changes of specific gravity of kidney were also measured to evaluate suppressing effects of xanthorrhizol on nephrotoxicity induced by cisplatin.
# as §1
# COX-2 = test: Semiquantitative RT-PCR of liver, COX-2 mRNA expression; type: in vivo, mice; conditions: for cisplatin-induced COX-2 mRNA expression: pretreatment 200 mg/kg before cisplatin
# Procedure: (§2) The mRNA expression levels of NF-κB-dependent genes, COX-2 and iNOS, were evaluated by semiquantitative RT-PCR using specific primer sets. β-actin and GAPDH were used as control.
# as §1
# ClpX = test: DDRT-PCR and semiquantitative RT-PCR of liver, ClpX mRNA expression; type: in vivo, mice
# iNOS = test: Semiquantitative RT-PCR of liver, iNOS mRNA expression; type: in vivo, mice; conditions: for induction of iNOS mRNA expression by cisplatin: pretreatment before cisplatin
# Procedure: as §2, §1
# AP-1 = system: AP-1
# Procedure: (§3) The density of band was measured by RFLPscan software.
# as §1
# (§4) EMSA (electrophoretic mobility shift assay) was performed to evaluate the xanthorrhizol's effects on NF-κB and AP-1. […] After that, powdered liver tissues were homogenized in 500 μl of cool hypotonic buffer [10 mM HEPES (pH 7.8), 10 mM KCl, 1.5 mM MgCl2, 0.5 mM DIT, 0.2 mM PMSF]. To the homogenates was added 125 μl of 10% NP-40 solution, and the mixture was then centrifuged at 12,000×g for 1 min. Pellets were washed once with 100 μl of the above buffer and 12.5 μl of 10% NP-40, centrifuged, resuspended in 50 μl of 20 mM cool HEPES buffer (pH 7.8) containing 420 mM NaCl, 1.5 mM MgCl2, 0.2 mM EDTA, 0.5 mM DTT, 0.2 mM PMSF, and 20% glycerol, and centrifuged at 12000×g for 5 min at 4° C. The supernatant containing nuclear proteins was collected and assayed protein concentration and stored at −70° C. […] The binding reaction was carried out in 25 μl of the mixture containing 5 μl of incubation buffer [10 mM Tris-HCl (pH 7.5), 100 mM NaCl, 1 mM DTT, 1 mM EDTA, 4% (v/v) glycerol, and 0.1 mg/ml sonicated salmon sperm DNA], 10 μg of nuclear extracts, and 100,000 cpm of the labeled probe. After 50 min of incubation at room temperature, the samples and comparative samples mixed with 3 μl of loading buffer (250 mM Tris-HCl (pH7.5), 0.2% bromophenol blue, 40% glycerol) were electrophoresed through a 6% non-denaturing polyacrylamide gel at 150 V for 2 hrs. Finally, the gel was dried and exposed to X-ray film.
# NF-κB = conditions: for binding activity of NF-κB induced by cisplatin: liver, oral pretreatment before cisplatin
# Procedure: as §3, §1, §4
# rat uterine = conditions: Ponce-Monter et al. 1999; cited from earlier work
# Streptococcus mutans = conditions: Hwang 2000; cited from earlier work
# [3] = cisplatin 45 mg/kg i.p. alone, 16 h after injection
# [4] = cisplatin 45 mg/kg i.p. alone (corn oil orally 4 days), 16 h after injection
# [5] = administration of cisplatin alone
# [6] = 200 mg/kg per day orally 4 days, then cisplatin 45 mg/kg i.p., 16 h
# [7] = liver, oral pretreatment before cisplatin
# [8] = 100 mg/kg per day orally 4 days, then cisplatin 45 mg/kg i.p., 16 h
# [9] = 200 mg/kg per day orally 4 days, then cisplatin 45 mg/kg i.p., 16 h, listed as xanthorrhizol
# Procedure for CP: Each example group consisted of 10 ICR mice (5 weeks, male). […] Only the corn oil was dosed orally as a negative control. […] Mice were weighed 16 h after the injection, killed under ether anesthesia and blood and liver samples were collected. The kidney and spleen were separated and weighed, respectively.
# After that, powdered liver tissues were homogenized using TRIzol™ reagent (Life technologies, Austria). The homogenized samples were incubated for 5 min at room temperature to permit the complete dissociation of nucleoprotein complexes. After the addition of 0.2 volume of chloroform, samples were shaken vigorously for 15 seconds, incubated for 2-3 min, and centrifuged at 12000×g for 15 min at 4° C. Total RNA in the upper aqueous phase was precipitated by mixing with an equal volume of isopropanol. The mixtures were incubated for 10 min at 4° C. and centrifuged at 12000×g for 10 min at 4° C. […] The concentration and purity of total RNA and DNase-I-treated total RNA were calculated with absorbance at 260 and 280 nm. […]
# Semiquantitative RT-PCR was performed to confirm the results from DDRT-PCR. To set the most suitable PCR amplification conditions, primers for interesting gene were determined by an on-line primer design program (Rozen and Skaletsky, 2000). […]
compound,measurement,setting,value
"N.N.[Cl][Pt][Cl] [Cisplatin, cis-diamminedichloroplatinum [II], reference compound]",BUN (blood urea nitrogen),ICR mice [1]; [3],144.4 ± 20.6 mg/dL
same,Creatinine,ICR mice [1]; [3],2.8 ± 0.7 mg/dL
same,GOT,ICR mice [1]; [3],517.1 ± 99.1 U/liter
same,GPT,ICR mice [1]; [3],185.8 ± 86.3 U/liter
same,Kin mRNA expression,Kin,upregulated
same,S100A9 mRNA expression,S100A9; cisplatin alone,upregulated
same,K.W/B.W * 1000% (kidney weight/body weight),ICR mice [2]; [4],19.2 ± 1.6
same,S.W/B.W * 1000% (spleen weight/body weight),ICR mice [2]; [4],2.1 ± 0.4
same,COX-2 mRNA expression,COX-2; [5],highly induced
same,ClpX mRNA expression,ClpX; cisplatin alone,downregulated
same,iNOS mRNA expression,iNOS; [5],highly induced
same,CP mRNA expression,"CP; mouse, in vivo",downregulated
same,DNA-binding activity of AP-1,"AP-1; mouse, in vivo",decreased
same,DNA-binding activity of NF-κB,"NF-κB; mouse, in vivo",increased
"COc1cc(/C=C/C(=O)CC(=O)/C=C/c2ccc(O)c(OC)c2)ccc1O [Curcumin, curcumin, reference compound]",BUN (blood urea nitrogen),ICR mice [1]; [6],138.6 ± 46.2 mg/dL
same,Creatinine,ICR mice [1]; [6],2.2 ± 1.4 mg/dL
same,GOT,ICR mice [1]; [6],381.6 ± 144.7 U/liter
same,GPT,ICR mice [1]; [6],158.4 ± 84.3 U/liter
same,K.W/B.W * 1000% (kidney weight/body weight),ICR mice [2]; [6],17.2 ± 1.7
same,S.W/B.W * 1000% (spleen weight/body weight),ICR mice [2]; [6],2.0 ± 0.1
same,specific gravity of kidney,ICR mice [2],decreased specific gravity of kidney at the level similar to that of the control group
same,cisplatin-induced COX-2 mRNA expression,COX-2,returned the cisplatin-induced COX-2 mRNA expression to initial level
same,induction of iNOS mRNA expression by cisplatin,iNOS,not suppressed
same,CP mRNA expression level changed by cisplatin,"CP; liver, pretreatment before cisplatin",did not show that effect
same,suppressed binding activity of AP-1 (by cisplatin),AP-1; [7],did not change
same,binding activity of NF-κB induced by cisplatin,NF-κB,suppressed
"CC(C)=CCC[C@@H](C)c1ccc(C)c(O)c1 [Xanthorrhizol, xanthorrhizol]",tonic contraction of rat uterine,rat uterine,dose-dependently limits tonic contraction
same,BUN (blood urea nitrogen),ICR mice [1]; [8],145.2 ± 23.5 mg/dL
same,Creatinine,ICR mice [1]; [8],2.0 ± 1.1 mg/dL
same,GOT,ICR mice [1]; [8],296.5 ± 74.5 U/liter
same,GPT,ICR mice [1]; [8],134.2 ± 58.5 U/liter
same,BUN (blood urea nitrogen),ICR mice [1]; [6],50.9 ± 16.7 mg/dL
same,Creatinine,ICR mice [1]; [6],0.8 ± 0.5 mg/dL
same,GOT,ICR mice [1]; [6],201.4 ± 50.3 U/liter
same,GPT,ICR mice [1]; [6],106.0 ± 28.3 U/liter
same,BUN (blood urea nitrogen),ICR mice [1]; [9],significantly decreased
same,Creatinine,ICR mice [1]; [9],significantly decreased
same,GPT,ICR mice [1]; [9],significantly reduced
same,S100A9 mRNA expression level changed by cisplatin,S100A9; pretreatment before cisplatin,reversed
same,K.W/B.W * 1000% (kidney weight/body weight),ICR mice [2]; [8],17.5 ± 2.9
same,S.W/B.W * 1000% (spleen weight/body weight),ICR mice [2]; [8],2.1 ± 0.4
same,K.W/B.W * 1000% (kidney weight/body weight),ICR mice [2]; [6],14.6 ± 0.9
same,S.W/B.W * 1000% (spleen weight/body weight),ICR mice [2]; [6],2.0 ± 0.3
same,specific gravity of kidney,ICR mice [2],decreased specific gravity of kidney at the level similar to that of the control group
same,cisplatin-induced COX-2 mRNA expression,COX-2,returned the cisplatin-induced COX-2 mRNA expression to initial level
same,antibacterial effect against oral bacteria such as Streptococcus mutans,Streptococcus mutans,antibacterial effect
same,ClpX mRNA expression level changed by cisplatin,ClpX; pretreatment before cisplatin,maintained the ClpX mRNA expression in the same level as without administrating with cisplatin; also recorded: reversed
same,induction of iNOS mRNA expression by cisplatin,iNOS,strongly suppressed
same,recovery of the binding activity of AP-1 suppressed by cisplatin,AP-1; [7],about 50%
same,binding activity of NF-κB induced by cisplatin,NF-κB,suppressed
